Measured values taken from US7265126B2, “Diaza-spiropiperidine derivatives” (Hoffmann-La Roche Inc., priority 2004, dated 2007).
Where “and” joins values, the source holds several entries; their conditions need not be identical. Equal values may be shown once. Read-outs that look alike come from different tables or passages of the source.

Tests used:
mGlyT-1b = biological target: T1, mGlyT-1b (Mus musculus, UniProt P28571); assay: Glycine uptake inhibition assay (mGlyT-1b); format: cell-based
T1 construct: host or cells: Flp-in-CHO
T1 sequence (P28571 1-651 isoform P28571-2): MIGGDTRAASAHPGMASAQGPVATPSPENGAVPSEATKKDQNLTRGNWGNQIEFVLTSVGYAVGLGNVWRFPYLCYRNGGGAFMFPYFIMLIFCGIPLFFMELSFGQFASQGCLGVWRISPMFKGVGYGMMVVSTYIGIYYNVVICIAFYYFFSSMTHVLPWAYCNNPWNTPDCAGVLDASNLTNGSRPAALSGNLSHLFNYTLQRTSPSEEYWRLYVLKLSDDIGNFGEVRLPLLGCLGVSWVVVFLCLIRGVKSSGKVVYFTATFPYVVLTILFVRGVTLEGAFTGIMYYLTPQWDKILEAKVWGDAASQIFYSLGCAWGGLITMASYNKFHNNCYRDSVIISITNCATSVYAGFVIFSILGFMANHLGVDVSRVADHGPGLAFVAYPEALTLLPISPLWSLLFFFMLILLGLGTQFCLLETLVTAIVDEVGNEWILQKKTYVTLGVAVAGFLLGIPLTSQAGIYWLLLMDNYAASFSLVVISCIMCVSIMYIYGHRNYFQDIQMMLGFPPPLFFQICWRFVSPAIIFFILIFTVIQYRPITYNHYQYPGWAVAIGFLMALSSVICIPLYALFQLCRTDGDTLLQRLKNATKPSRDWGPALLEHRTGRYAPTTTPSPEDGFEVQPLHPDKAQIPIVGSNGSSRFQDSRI
Protocol: DMEM complete medium: Nutrient mixture F-12 (Gibco Life-technologies), fetal bovine serum (FBS) 5%, (Gibco life technologies), Penicillin/Streptomycinl % (Gibco life technologies), Hygromycin 0.6 mg/ml (Gibco life technologies), Glutamine 1 mM Gibco life technologies)
Uptake buffer (UB): 150 mM NaCl, 10 mM Hepes-Tris, pH 7.4, 1 mM CaCl2, 2.5 mM KCl, 2.5 mM MgSO4, 10 mM (+) D-glucose.
Flp-in™-CHO (Invitrogen Cat no. R758-07)cells stably transfected with mGlyT1b cDNA.
Glycine Uptake Inhibition Assay (mGlyT-1b)

GlyT-1 = biological target: T2, GlyT-1 (Homo sapiens, UniProt P48067); assay: GlyT-1 inhibition, human; format: cell-based
T2 sequence (P48067 1-706): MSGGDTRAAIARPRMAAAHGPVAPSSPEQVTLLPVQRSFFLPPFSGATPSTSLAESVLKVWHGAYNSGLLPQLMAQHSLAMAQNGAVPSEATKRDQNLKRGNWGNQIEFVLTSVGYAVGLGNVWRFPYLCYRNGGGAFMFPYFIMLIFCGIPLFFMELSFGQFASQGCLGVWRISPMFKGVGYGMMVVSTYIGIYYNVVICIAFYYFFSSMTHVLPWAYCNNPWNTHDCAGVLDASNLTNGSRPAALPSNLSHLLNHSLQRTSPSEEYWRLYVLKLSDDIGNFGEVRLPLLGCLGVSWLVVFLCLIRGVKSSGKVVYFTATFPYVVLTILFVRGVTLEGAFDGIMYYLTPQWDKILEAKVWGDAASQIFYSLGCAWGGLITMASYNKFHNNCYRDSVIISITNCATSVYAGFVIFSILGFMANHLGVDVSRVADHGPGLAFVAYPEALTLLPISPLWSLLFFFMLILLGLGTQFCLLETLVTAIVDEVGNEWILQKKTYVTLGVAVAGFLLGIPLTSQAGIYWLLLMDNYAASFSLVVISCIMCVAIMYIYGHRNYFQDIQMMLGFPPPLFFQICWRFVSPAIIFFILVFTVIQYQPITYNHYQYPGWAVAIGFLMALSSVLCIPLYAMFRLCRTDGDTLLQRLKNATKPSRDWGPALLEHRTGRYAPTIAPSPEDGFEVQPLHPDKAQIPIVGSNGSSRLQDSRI
Protocol: On day 1 mammalian cells, (Flp-in™-CHO), transfected with mGlyT-1b cDNA , were plated at the density of 40,000 cells/well in complete F-12 medium, without hygromycin in 96-well culture plates. On day 2, the medium was aspirated and the cells were washed twice with uptake buffer (UB). The cells were then incubated for 20 min at 22° C. with either (i) no potential competitor, (ii) 10 mM non-radioactive glycine , (iii) a concentration of a potential inhibitor. […] A solution was then immediately added containing [^3H]-glycine 60 nM (11-16 Ci/mmol) and 25 µM non-radioactive glycine. The plates were incubated with gentle shaking and the reaction was stopped by aspiration of the mixture and washing (three times) with ice-cold US. The cells were lysed with scintillation liquid, shaken 3 hours and the radioactivity in the cells was coounted using a scintillation counter.

With `O=C1NCC(c2ccc(F)cc2)C12CCN(C1(c3ccsc3)CCCCC1)CC2` (racemic) [Example 38, rac-4-(4-Fluoro-phenyl)-8-(1-thiophen-3-yl-cyclohexyl)-2,8-diaza-spiro[4.5]decan-1-one] the IC50 (mGlyT-1b; GlyT-1 Enant. Mouse/human) was 99 nM and 213 nM and the IC50 (mGlyT-1b; GlyT-1 Racemat Mouse/human) was 99 nM.

In the case of `O=C1NCC(c2ccc(F)cc2)C12CCN(C1(c3ccc(F)cc3)CCCCCC1)CC2` (racemic) [Example 50, rac4-(4-Fluoro-phenyl)-8-[1-(4-fluoro-phenyl)-cycloheptyl]-2,8-diaza-spiro[4.5]decan-1-one], the IC50 (mGlyT-1b) is reported as 81 nM, the IC50 (mGlyT-1b; second-listed enantiomer, mouse value (before the slash), read-out: GlyT-1 Enant. Mouse/human) is reported as 153 nM and the IC50 (GlyT-1; racemate, human value (after the slash), read-out: GlyT-1 Racemat Mouse/human) is reported as 132 nM.

Compound `Cc1ccc(C2CNC(=O)C23CCN(C2(c4ccc(F)cc4)CCCCC2)CC3)cc1` (racemic) [Example 52, rac 8-[1-(4-Fluoro-phenyl)-cyclohexyl]4-p-tolyl-2,8-diaza-spiro [4.5]decan-1-one] has an IC50 (GlyT-1; GlyT-1 Racemat Mouse/human) of 73 nM.
